{
  "source": "paper PMC11582173",
  "about": "“Synthesis, cytotoxicity, anti-inflammatory, anti-metastatic and anti-oxidant activities of novel chalcones incorporating 2-phenoxy-N-arylacetamide and thiophene moieties: induction of apoptosis in MCF7 and HEP2 cells” (Naunyn-Schmiedeberg's Archives of Pharmacology, 2024)",
  "key": {"[1]": {"test_system": "human colorectal carcinoma (HCT116) cells", "assay": "SRB cytotoxic assay, HCT116", "type": "cell-based", "details": "HCT-116, single dose 100 µg/mL, 48 h, read-out: %Inhibition at100 µg/mL HCT116", "method": "(§1) All the prepared compounds were screened at a concentration of 100 µg/mL against six different human cell lines: human laryngeal carcinoma (HEP2), human colorectal carcinoma (HCT116), human breast carcinoma (MCF7), human Lung carcinoma (A549), human liver carcinoma (HEPG2), and normal African Green monkey kidney cell line (VERO). Doxorubicin was used as a positive control for comparison purposes.\n(§2) The human laryngeal carcinoma (HEP2), colorectal carcinoma (HCT116), breast carcinoma (MCF7), Lung carcinoma (A549), liver carcinoma (HEPG2), and normal African Green monkey kidney cell line (VERO) were purchased from American Tissue Culture Collection (Rockville, MD, USA). The cells were treated for 48 h with a single dose (100 µg/mL) of all the tested chalcones. […] In brief, the cells were seeded in a 96-well microtiter plate at a concentration of 5×10^3 cells/well in 100 µL fresh RPMI-1640 medium and left to attach to the plates for 24 h. Then, cells were incubated with 100 μL of different concentrations (50, 25, 12.5, 6.25, and 0.0 µg/mL) of 5c in triplicate at 37 °C for 48 h. After that, the cells were fixed with 10 µL cold 100% Trichloroacetic acid (TCA) for 1h at 4 °C. The wells were then washed 1 time with distilled water using (automatic Tecan washer, Germany) and stained for 30 min at room temperature with 50 µL 0.4% SRB dissolved in 1% acetic acid. The plates were air-dried and the dye was solubilized with 100 µl/well of 1M tris base (pH 10.5) for 5 min. The optical density (O.D.) of each well was measured spectrophotometrically at 570 nm with an ELISA microplate reader (Sunrise Tecan reader, Germany) with automatic shaking for 30 seconds before reading. The mean background absorbance was subtracted automatically and mean values for each drug concentration were calculated. The percentage of cell survival was calculated as follows: Survival fraction= O.D. (treated cells)/ O.D. (control cells) (Bhat et al. [2023])."}, "[2]": {"test_system": "human breast carcinoma (MCF7) cells", "assay": "SRB cytotoxic assay, MCF7", "type": "cell-based", "details": "MCF7, 48 h", "method": "as §1, §2"}, "[3]": {"test_system": "human Lung carcinoma (A549) cells", "assay": "SRB cytotoxic assay, A549", "type": "cell-based", "details": "single dose 100 µg/mL, 48 h, read-out: %Inhibition at100 µg/mL A549", "method": "as §1, §2"}, "[4]": {"test_system": "IL-1B gene", "assay": "Real-time PCR, IL-1B gene expression", "type": "cell-based, human", "details": "relative to untreated control (1)", "method": "(§3) The expression level of the following six genes (Ki-67, Survivin, Interleukin-1 beta (IL-1B), Interleukin-6 (IL-6), Cyclooxygenase-2 (COX-2) and protein kinase B (AKT1)) was determined in MCF7 and HEP2 treated with the IC50 of compound 5c. The untreated cells were used as a negative control for comparison purposes. […] Ki-67 is a popular proliferation marker for human tumor cells. […] Survivin is an inhibitor of apoptotic protein (IAP) family member, which is essential for cell division. The lowering of the expression of survivin inhibited tumor development, triggered apoptosis, and made tumor cells more susceptible to radiation and chemotherapy (Albadari and Li [2023]). […] IL-1B is a pleiotropic mediator of inflammation, which is produced in response to a variety of stressors (Aarreberg et al. [2019]). […] IL-6 is a pro-inflammatory cytokine that plays a significant role in the proliferation and differentiation of human cells. It promotes the production of numerous proteins involved in acute inflammation (Uciechowski and Dempke [2020]). […]\n(§4) The expression level of the following six genes (Ki-67, survivin, AKT1, IL-6, COX2, and IL-1B) was examined using real-time polymerase chain reaction (qPCR) (Mohamed et al. [2023a]). […] The cycle threshold (Ct) was determined automatically. […]"}, "[5]": {"test_system": "COX-2 gene", "assay": "Real-time PCR, COX-2 gene expression", "type": "cell-based, human", "details": "relative to untreated control (1)", "method": "as §3, §4"}, "[6]": {"details": "HEP2 cells treated with IC50 of 5c"}, "[7]": {"details": "MCF7 cells treated with IC50 of 5c"}},
  "data": [
    {"smiles": "COc1ccc(NC(=O)COc2ccc(C=CC(=O)c3cccs3)cc2)cc1", "note": "[Compound 5c, N-(4-Methoxyphenyl)-2-(4-(3-oxo-3-(thiophen-2-yl)prop-1-en-1-yl)phenoxy)acetamide]", "values": [
      {"measurement": "inhibition at 100 µg/mL", "setting": "[1]", "value": "41.9 ± 1.8", "unit": "%"},
      {"measurement": "IC50", "setting": "[2]", "value": 9.5, "unit": "µg/mL"},
      {"measurement": "inhibition at 100 µg/mL", "setting": "[2]; single dose 100 µg/mL, read-out: %Inhibition at100 µg/mL MCF7", "value": "> 75", "unit": "%"},
      {"measurement": "inhibition at 100 µg/mL", "setting": "[3]", "value": "65 ± 2.1", "unit": "%"},
      {"measurement": "IL-1B expression folding", "setting": "[4]; [6]", "value": "0.461±0.069", "unit": "fold"},
      {"measurement": "IL-1B expression folding", "setting": "[4]; [7]", "value": "0.4008±0.116", "unit": "fold"},
      {"measurement": "COX2 expression folding", "setting": "[5]; [6]", "value": "0.547±0.0321", "unit": "fold"},
      {"measurement": "COX2 expression folding", "setting": "[5]; [7]", "value": "0.502±0.073", "unit": "fold"}
    ]}
  ]
}
